From paper PMC10527514 (Gastroenterology, 2023)

Legend:
Type in all cases: cell-based
GPR84 = GPR84 (Homo sapiens, UniProt Q9NQS5); test: Hit Hunter cAMP assay in cAMP Hunter cells
PPARα = target: T1, PPARα (Homo sapiens, UniProt Q07869); test: PathHunter nuclear hormone receptor cell assay, chemiluminescence
T1 sequence (Q07869 1-468): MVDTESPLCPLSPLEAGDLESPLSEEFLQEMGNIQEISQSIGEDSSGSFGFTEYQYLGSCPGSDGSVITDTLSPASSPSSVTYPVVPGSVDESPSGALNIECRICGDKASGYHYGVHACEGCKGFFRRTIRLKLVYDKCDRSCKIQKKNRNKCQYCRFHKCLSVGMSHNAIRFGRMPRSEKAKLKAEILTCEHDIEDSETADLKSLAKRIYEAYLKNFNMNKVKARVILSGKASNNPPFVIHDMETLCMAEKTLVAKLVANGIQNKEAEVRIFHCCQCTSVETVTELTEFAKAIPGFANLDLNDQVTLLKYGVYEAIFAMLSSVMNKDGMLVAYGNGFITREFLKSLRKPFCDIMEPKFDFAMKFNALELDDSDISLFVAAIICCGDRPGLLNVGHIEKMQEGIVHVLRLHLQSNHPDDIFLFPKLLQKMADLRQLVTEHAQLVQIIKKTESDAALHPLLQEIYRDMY

PPARγ = target: T2, PPARγ (Homo sapiens, UniProt P37231); test: as above
T2 sequence (P37231 1-505): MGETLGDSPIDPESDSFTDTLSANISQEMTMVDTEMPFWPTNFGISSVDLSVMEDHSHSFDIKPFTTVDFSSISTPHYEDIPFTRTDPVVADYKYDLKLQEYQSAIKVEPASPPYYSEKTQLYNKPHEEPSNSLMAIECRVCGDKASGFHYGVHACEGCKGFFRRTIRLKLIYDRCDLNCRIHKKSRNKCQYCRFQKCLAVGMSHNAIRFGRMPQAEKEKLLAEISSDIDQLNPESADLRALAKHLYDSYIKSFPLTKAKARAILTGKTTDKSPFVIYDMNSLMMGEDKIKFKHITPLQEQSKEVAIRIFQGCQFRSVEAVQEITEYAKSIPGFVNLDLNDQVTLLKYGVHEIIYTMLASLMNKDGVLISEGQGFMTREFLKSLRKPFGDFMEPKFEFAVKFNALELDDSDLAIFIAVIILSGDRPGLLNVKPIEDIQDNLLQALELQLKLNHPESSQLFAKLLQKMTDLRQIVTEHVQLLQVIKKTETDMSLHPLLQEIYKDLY

Sequence of GPR84 (Q9NQS5 whole entry): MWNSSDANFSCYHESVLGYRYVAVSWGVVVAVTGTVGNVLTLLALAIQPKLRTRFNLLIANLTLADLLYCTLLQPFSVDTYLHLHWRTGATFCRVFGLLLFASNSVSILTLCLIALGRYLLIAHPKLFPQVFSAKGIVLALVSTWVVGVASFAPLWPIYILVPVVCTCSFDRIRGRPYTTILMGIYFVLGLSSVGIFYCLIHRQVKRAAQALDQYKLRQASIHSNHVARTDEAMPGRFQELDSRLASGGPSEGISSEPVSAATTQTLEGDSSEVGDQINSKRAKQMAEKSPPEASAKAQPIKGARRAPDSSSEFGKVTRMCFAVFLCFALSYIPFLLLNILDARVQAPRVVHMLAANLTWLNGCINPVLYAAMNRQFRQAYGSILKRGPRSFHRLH

For `CCCCCOc1cccc(C(=O)O)c1C` [SEFA-6179], the EC50 (GPR84) was 12 µM, the EC50 (PPARα) was 4.4 µM and the EC50 (PPARγ) was 40 µM.
